Laboratory results reported in paper PMC9033141, “Beta and Gamma Amino Acid-Substituted Benzenesulfonamides as Inhibitors of Human Carbonic Anhydrases” (Pharmaceuticals, 2022).
pKd: −log10 of the molar value. Read-outs that look alike come from different tables or passages of the source.

Assays:
CAI = target: T1, CAI (Homo sapiens, UniProt P00915); assay: biochemical; format: binding; details: FTSA, pH 7.0, 37 °C; read-out: Observed Dissociation Constant (Kd_obs), CAI
T1 construct: made in house; host or cells: E. coli
T1 sequence (P00915 whole entry): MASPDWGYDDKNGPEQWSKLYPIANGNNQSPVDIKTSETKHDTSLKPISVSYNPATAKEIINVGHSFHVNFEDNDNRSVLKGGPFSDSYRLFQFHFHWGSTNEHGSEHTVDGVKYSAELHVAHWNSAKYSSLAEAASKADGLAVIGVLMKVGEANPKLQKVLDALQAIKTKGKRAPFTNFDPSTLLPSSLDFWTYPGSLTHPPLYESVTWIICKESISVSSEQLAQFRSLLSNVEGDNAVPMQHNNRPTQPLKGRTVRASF

CAII = target: T2, CAII (Homo sapiens, UniProt P00918); assay: biochemical; format: binding; details: FTSA, pH 7.0, 37 °C; read-out: Observed Dissociation Constant (Kd_obs), CAII
T2 construct: made in house; host or cells: E. coli

CAIII = target: T3, CAIII (Homo sapiens, UniProt P07451); assay: Fluorescent thermal shift assay (FTSA), CAIII; format: binding; details: FTSA, pH 7.0, 37 °C; read-out: Observed Dissociation Constant (Kd_obs), CAIII
T3 construct: made in house; host or cells: E. coli
T3 sequence (P07451 whole entry): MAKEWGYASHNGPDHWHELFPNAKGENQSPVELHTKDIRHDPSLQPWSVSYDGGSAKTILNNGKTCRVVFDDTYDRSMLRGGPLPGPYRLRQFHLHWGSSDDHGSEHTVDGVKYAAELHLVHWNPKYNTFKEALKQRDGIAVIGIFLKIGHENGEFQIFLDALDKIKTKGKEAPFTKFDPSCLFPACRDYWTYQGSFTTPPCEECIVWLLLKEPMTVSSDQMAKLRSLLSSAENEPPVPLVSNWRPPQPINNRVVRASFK
Description: (§1) Human CA isozymes were expressed in E. coli (CAI, II, III, IV, VA, VB, VII, XII, XIII, XIV) or mammalian cells (CAVI and CAIX), chromatographically purified following the published protocols [47], and stored at −80 °C. The protein concentration was determined by UV absorption at 280 nm using Beer–Lambert law.
(§2) The QIAGEN Rotor-Gene Q was used to carry out the experiments, with a blue channel used for excitation (365 nm) and detection (460 nm). FTSA in this case relies on an extrinsic probe, 8-anilino-1-naphthalenesulfonate (ANS), to detect the fluorescence increase during protein denaturation, from which protein melting temperature (Tm) can be determined. […] The observed affinity of ligands for CAs was determined by plotting the Tm as a function of ligand concentration and then fitting a curve as described previously [48]. […] Samples were heated from 25 °C to 99 °C at the speed of 1 °C/min.
(§3) The intrinsic thermodynamic parameters were calculated as described in [40]. The intrinsic reaction of inhibitor binding to CA is shown in Equation (1). […] It is known that CA proteins bind sulfonamides only when water molecules are coordinated to the Zn(II) ion, and sulfonamides only bind to CA proteins when their amino group is deprotonated (confirmed by neutron crystallography [53, 54, 55]):(1) CA Zn^II−H2O+RSO2NH^−⇄ CA Zn^II−NH SO2R+H2O
(§4) When calculating Kd_int values, these protein and ligand fractions from Equation (1) have to be accounted for (Equations (2) and (3)). The intrinsic dissociation constant is calculated by multiplying Kd_obs value by the corresponding fractions of protein and ligand (Equation (4)). (2) fRSO2NH^−=10^pH−pKa_RSO2NH2/1+10^pH−pKa_RSO2NH2 (3) fCAZnH2O=1−10^pH−pKa_CAZnH2O/1+10^pH−pKa_CAZnH2O (4) Kd_int=Kd_obs×fRSO2NH^−×fCAZnH2O (5) ΔGint0=RTlnKd_int
(§5) The intrinsic standard Gibbs energy changes upon binding were calculated using Equation (5). Here, R—universal ideal gas constant (8.3144 J/mol·K), T—absolute temperature (310.15 K).

CAIV = target: T4, CAIV (Homo sapiens, UniProt P22748); assay: Fluorescent thermal shift assay (FTSA), CAIV; format: binding; details: FTSA, pH 7.0, 37 °C; read-out: Observed Dissociation Constant (Kd_obs), CAIV;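 also: recombinant human enzyme, thermal denaturation followed by ANS fluorescence, melting temperature versus ligand concentration fitted for Kd_obs, intrinsic value corrected for deprotonated sulfonamide and Zn-bound water fractions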
T4 construct: made in house; host or cells: E. coli
T4 sequence (P22748 19-312): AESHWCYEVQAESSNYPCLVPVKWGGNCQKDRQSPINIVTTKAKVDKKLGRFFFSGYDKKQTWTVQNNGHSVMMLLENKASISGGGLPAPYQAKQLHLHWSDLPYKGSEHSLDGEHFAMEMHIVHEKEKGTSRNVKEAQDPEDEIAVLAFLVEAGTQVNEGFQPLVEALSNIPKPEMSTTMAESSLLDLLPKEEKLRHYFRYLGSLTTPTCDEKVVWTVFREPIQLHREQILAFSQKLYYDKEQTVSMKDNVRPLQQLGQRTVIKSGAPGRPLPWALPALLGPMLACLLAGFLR
Description: as §1, §2, §3, §4, §5

CAVA = target: T5, CAVA (Homo sapiens, UniProt P35218); assay: Fluorescent thermal shift assay (FTSA), CAVA; format: binding; details: FTSA, pH 7.0, 37 °C; read-out: Observed Dissociation Constant (Kd_obs), CAVA
T5 construct: made in house; host or cells: E. coli
T5 sequence (P35218 39-305): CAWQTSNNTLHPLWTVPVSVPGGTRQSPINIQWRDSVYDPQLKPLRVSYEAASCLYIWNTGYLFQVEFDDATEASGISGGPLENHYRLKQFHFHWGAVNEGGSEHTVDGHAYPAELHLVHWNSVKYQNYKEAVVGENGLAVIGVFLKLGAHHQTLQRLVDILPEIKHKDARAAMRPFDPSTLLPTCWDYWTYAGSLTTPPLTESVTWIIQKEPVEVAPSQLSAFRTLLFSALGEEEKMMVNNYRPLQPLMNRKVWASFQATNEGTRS
Description: as §1, §2, §3, §4, §5

CAVB = target: T6, CAVB (Homo sapiens, UniProt Q9Y2D0); assay: Fluorescent thermal shift assay (FTSA), CAVB; format: binding; details: FTSA, pH 7.0, 37 °C; read-out: Observed Dissociation Constant (Kd_obs), CAVB
T6 construct: made in house; host or cells: E. coli
T6 sequence (Q9Y2D0 34-317): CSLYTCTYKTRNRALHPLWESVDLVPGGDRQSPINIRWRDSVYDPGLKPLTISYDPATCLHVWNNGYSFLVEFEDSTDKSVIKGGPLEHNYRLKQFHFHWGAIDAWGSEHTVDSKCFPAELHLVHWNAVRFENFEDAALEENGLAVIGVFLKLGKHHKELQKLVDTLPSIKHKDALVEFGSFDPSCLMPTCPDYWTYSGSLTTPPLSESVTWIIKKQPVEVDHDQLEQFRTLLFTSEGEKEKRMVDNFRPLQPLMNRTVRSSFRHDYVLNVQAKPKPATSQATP
Description: as §1, §2, §3, §4, §5

CAVI = target: T7, CAVI (Homo sapiens, UniProt P23280); assay: Fluorescent thermal shift assay (FTSA), CAVI; format: binding; details: FTSA, pH 7.0, 37 °C; read-out: Observed Dissociation Constant (Kd_obs), CAVI;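 also: human CAVI expressed in mammalian cells, ANS fluorescence tracked during thermal unfolding, melting temperature fitted against ligand concentration, intrinsic values corrected for deprotonated sulfonamide and Zn-bound water fractions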
T7 construct: made in house
T7 sequence (P23280 21-290 limits assumed): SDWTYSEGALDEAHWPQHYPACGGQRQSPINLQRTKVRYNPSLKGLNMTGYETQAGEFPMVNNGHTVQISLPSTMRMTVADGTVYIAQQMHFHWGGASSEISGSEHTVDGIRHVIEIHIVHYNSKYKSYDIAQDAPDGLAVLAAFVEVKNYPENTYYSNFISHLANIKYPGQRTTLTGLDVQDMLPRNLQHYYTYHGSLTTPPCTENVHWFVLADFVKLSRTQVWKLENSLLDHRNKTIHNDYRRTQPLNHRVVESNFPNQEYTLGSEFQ
Description: as §1, §2, §3, §4, §5

CAVII = target: T8, CAVII (Homo sapiens, UniProt P43166); assay: Fluorescent thermal shift assay (FTSA), CAVII; format: binding; details: FTSA, pH 7.0, 37 °C
T8 construct: made in house; host or cells: E. coli
T8 sequence (P43166 whole entry): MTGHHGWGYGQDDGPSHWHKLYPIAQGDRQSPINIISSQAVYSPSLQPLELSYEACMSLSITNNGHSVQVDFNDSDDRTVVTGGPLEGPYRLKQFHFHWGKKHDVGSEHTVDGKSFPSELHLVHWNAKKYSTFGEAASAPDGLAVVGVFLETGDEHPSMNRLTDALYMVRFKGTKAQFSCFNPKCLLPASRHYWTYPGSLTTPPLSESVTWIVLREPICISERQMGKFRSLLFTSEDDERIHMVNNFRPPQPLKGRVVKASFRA

CAIX = target: T9, CAIX (Homo sapiens, UniProt Q16790); assay: biochemical; format: binding; details: FTSA, pH 7.0, 37 °C
T9 construct: made in house

CAXII = target: T10, CAXII (Homo sapiens, UniProt O43570); assay: biochemical; format: binding; details: FTSA, pH 7.0, 37 °C; read-out: Observed Dissociation Constant (Kd_obs), CAXII
T10 construct: made in house; host or cells: E. coli
T10 sequence (O43570 25-354): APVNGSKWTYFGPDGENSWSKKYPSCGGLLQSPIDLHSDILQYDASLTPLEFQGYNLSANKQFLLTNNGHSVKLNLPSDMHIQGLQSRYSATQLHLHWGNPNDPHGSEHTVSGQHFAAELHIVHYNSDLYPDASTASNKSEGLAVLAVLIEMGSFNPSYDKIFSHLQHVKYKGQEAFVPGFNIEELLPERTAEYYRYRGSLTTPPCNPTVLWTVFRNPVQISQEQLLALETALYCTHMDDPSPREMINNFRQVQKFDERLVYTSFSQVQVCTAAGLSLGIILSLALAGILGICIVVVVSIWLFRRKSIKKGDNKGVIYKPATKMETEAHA
Description: as §1, §2
(§6) The intrinsic thermodynamic parameters were calculated as described in [40]. The intrinsic reaction of inhibitor binding to CA is shown in Equation (1).
as §4, §5

CAXIV = target: T11, CAXIV (Homo sapiens, UniProt Q9ULX7); assay: Fluorescent thermal shift assay (FTSA), CAXIV; format: binding; details: FTSA, pH 7.0, 37 °C; read-out: Observed Dissociation Constant (Kd_obs), CAXIV;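 also: recombinant human CA XIV from E. coli, ANS-based thermal shift: Kd_obs fitted from melting temperature versus ligand concentration, ΔGint from Kd_obs corrected for deprotonated sulfonamide and Zn-water fractions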
T11 construct: made in house; host or cells: E. coli
T11 sequence (Q9ULX7 16-337): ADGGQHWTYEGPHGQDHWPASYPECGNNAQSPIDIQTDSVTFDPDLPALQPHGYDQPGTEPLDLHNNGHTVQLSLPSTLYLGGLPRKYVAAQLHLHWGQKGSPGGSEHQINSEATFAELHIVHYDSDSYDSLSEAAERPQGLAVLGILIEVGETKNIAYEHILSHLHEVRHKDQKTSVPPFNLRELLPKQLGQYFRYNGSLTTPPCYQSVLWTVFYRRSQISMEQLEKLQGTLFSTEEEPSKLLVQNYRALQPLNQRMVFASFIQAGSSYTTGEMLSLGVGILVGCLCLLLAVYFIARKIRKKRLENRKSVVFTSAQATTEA

CAXIII = CAXIII (Homo sapiens, UniProt Q8N1Q1); assay: biochemical; details: Observed Dissociation Constant (Kd_obs), FTSA, pH 7.0, 37 °C;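 also: recombinant human CAXIII melting temperature tracked by ANS fluorescence in thermal shift assay, Tm fitted against ligand concentration, intrinsic value corrects Kd for deprotonated sulfonamide and Zn-bound water fractions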
CAXIII, sequence (Q8N1Q1 whole entry): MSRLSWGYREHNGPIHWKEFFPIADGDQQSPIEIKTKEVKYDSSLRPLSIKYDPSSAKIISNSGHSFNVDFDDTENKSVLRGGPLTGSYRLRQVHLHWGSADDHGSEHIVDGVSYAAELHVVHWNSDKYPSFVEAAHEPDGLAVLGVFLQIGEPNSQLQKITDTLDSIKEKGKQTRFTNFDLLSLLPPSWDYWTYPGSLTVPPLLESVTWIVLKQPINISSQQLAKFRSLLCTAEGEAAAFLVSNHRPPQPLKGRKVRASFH
Description: as §1, §2, §6, §4, §5

[1] = read-out: Observed Dissociation Constant (Kd_obs), CAVII
[2] = read-out: Observed Dissociation Constant (Kd_obs), CAIX
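For Observed Dissociation Constant (Kd obs), CAXII in this document: recombinant CAXII made in E. coli, ANS-fluorescence thermal shift with affinity fitted from Tm versus ligand concentration, intrinsic energy from Kd_obs corrected for deprotonated sulfonamide and Zn-water fractions.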

Row | pKd (CAI) | pKd (CAII) | pKd (CAIII) | pKd (CAIV) | pKd (CAVA) | pKd (CAVB) | pKd (CAVI) | pKd (CAVII; [1]) | pKd (CAIX; [2]) | pKd (CAXII) | pKd (CAXIV) | melting point | pKd (CAXIII) | pKd (CAVII; Observed Dissociation Constant (Kd_obs), CAVII) | pKd (CAIX; Observed Dissociation Constant (Kd_obs), CAIX) | Compound
1 | 4.70 | 5.30 | ≤ 3.70 | 4.48 | 4.70 | 4.85 | 4.48 | 5.17 | 5.85 | 4.70 | 5.30 | 308 to 309 °C | 4.60 |  |  | NS(=O)(=O)c1ccc(NCC(CC(=O)NN=Cc2ccc(C(=O)O)cc2)C(=O)NN=Cc2ccc(C(=O)O)cc2)cc1 (stereo not drawn) [Compound 18a, 4,4′-(((2-(((4-Sulfamoylphenyl)amino)methyl)succinyl)bis(hydrazin-2-yl-1-ylidene))bis(methaneylylidene))dibenzoic acid]
2 | 5.85 | 6.62 | ≤ 3.70 | 5.38 | 4.70 | 6.89 | 6.17 | 6.54 | 7.00 | 5.10 | 6.85 | 212 to 213 °C | 6.74 |  |  | NS(=O)(=O)c1ccc(NCC(CC(=O)NN=Cc2ccccc2)C(=O)NN=Cc2ccccc2)c(Cl)c1 (stereo not drawn) [Compound 6b, 4-((2-(2-(Benzylidene)hydrazine-1-carbonyl)-4-(2-(benzylidene)hydrazineyl)-4-oxobutyl)amino)-3-chlorobenzenesulfonamide]
3 | 5.59 | 6.24 |  |  |  |  |  |  |  | 4.24 |  | 220 to 221 °C | 5.85 |  | 5.85 | NS(=O)(=O)c1ccc(NCC(CC(=O)NN=Cc2ccc([N+](=O)[O-])cc2)C(=O)NN=Cc2ccc([N+](=O)[O-])cc2)c(Cl)c1 (stereo not drawn) [Compound 17b, 3-Chloro-4-((2-(2-(4-nitrobenzylidene)hydrazine-1-carbonyl)-4-(2-(4-nitrobenzylidene)hydrazineyl)-4-oxobutyl)amino)benzenesulfonamide]
4 | 5.48 | 6.30 |  |  |  |  |  |  | 6.89 | 3.89 |  | 199 to 200 °C | 6.00 |  |  | NS(=O)(=O)c1ccc(NCC(CC(=O)NN=Cc2cccc([N+](=O)[O-])c2)C(=O)NN=Cc2cccc([N+](=O)[O-])c2)c(Cl)c1 (stereo not drawn) [Compound 16b, 3-Chloro-4-((2-(2-(3-nitrobenzylidene)hydrazine-1-carbonyl)-4-(2-(3-nitrobenzylidene)hydrazineyl)-4-oxobutyl)amino)benzenesulfonamide]
5 | 4.66 | 5.54 |  |  |  |  |  |  | 5.85 | 4.64 |  | 153 to 154 °C | 4.70 |  |  | NS(=O)(=O)c1ccc(NCC(CC(=O)NN=Cc2ccc(F)cc2)C(=O)NN=Cc2ccc(F)cc2)cc1 (stereo not drawn) [Compound 13a, 4-((2-(2-(4-Fluorobenzylidene)hydrazine-1-carbonyl)-4-(2-(4-fluorobenzylidene)hydrazineyl)-4-oxobutyl)amino)benzenesulfonamide]
6 | 4.89 | 5.48 |  |  |  |  |  |  | 6.00 | 4.30 |  | 197 to 198 °C | 5.17 |  |  | NS(=O)(=O)c1ccc(NCC(CC(=O)NN=Cc2ccccc2[N+](=O)[O-])C(=O)NN=Cc2ccccc2[N+](=O)[O-])cc1 (stereo not drawn) [Compound 15a, 4-((2-(2-(2-Nitrobenzylidene)hydrazine-1-carbonyl)-4-(2-(2-nitrobenzylidene)hydrazineyl)-4-oxobutyl)amino)benzenesulfonamide]

More lines, now with the values behind:

Row | Compound | pKd (CAI) | pKd (CAII) | pKd (CAIII) | pKd (CAIV) | pKd (CAVA) | pKd (CAVB) | pKd (CAVI) | pKd (CAVII; [1]) | pKd (CAIX; [2]) | pKd (CAXII) | pKd (CAXIV) | melting point | pKd (CAXIII) | pKd (CAVII; Observed Dissociation Constant (Kd_obs), CAVII) | pKd (CAIX; Observed Dissociation Constant (Kd_obs), CAIX)
7 | NS(=O)(=O)c1ccc(NCC(CC(=O)NN=Cc2ccc(C(=O)O)cc2)C(=O)NN=Cc2ccc(C(=O)O)cc2)c(Cl)c1 (stereo not drawn) [Compound 18b, 4,4′-(((2-(((2-Chloro-4-sulfamoylphenyl)amino)methyl)succinyl)bis(hydrazin-2-yl-1-ylidene))bis(methaneylylidene))dibenzoic acid] | 5.30 | 5.89 | ≤ 3.70 | 4.89 | 5.17 | 5.17 | 4.70 | 6.48 | 6.60 | 4.89 | 6.00 | 294 to 295 °C | 5.74 |  | 
8 | Cc1ccc(C)n1NC(=O)CC(CNc1ccc(S(N)(=O)=O)cc1Cl)C(=O)Nn1c(C)ccc1C (stereo not drawn) [Compound 19b, 2-(((2-Chloro-4-sulfamoylphenyl)amino)methyl)-N^1,N^4-bis(2,5-dimethyl-1H-pyrrol-1-yl)succinamide] | 6.54 | 7.30 | ≤ 3.70 | 5.74 | 4.70 | 5.85 | 5.30 | 6.70 | 7.25 | 5.89 | 7.60 | 232 to 233 °C | 6.89 |  | 
9 | Cc1csc(N(CCC(=O)NN=Cc2ccccc2)c2ccc(S(N)(=O)=O)cc2)n1 [Compound 30, 4-((3-(2-Benzylidenehydrazineyl)-3-oxopropyl)(4-methylthiazol-2-yl)amino)benzenesulfonamide] | 5.48 | 5.40 | ≤ 3.70 | 4.57 | ≤ 3.70 | 4.96 | 4.17 | 4.00 | 6.54 | 3.96 | 5.17 | 170 to 171 °C | 5.08 |  | 
10 | NS(=O)(=O)c1ccc(NCC(CC(=O)NN=Cc2ccc(O)cc2)C(=O)NN=Cc2ccc(O)cc2)c(Cl)c1 (stereo not drawn) [Compound 9b, 3-Chloro-4-((2-(2-(4-hydroxybenzylidene)hydrazine-1-carbonyl)-4-(2-(4-hydroxybenzylidene)hydrazineyl)-4-oxobutyl)amino)benzenesulfonamide] | 6.17 | 6.70 | ≤ 3.70 | 6.00 | 5.54 | 6.08 | 6.17 |  | 7.00 | 4.85 | 6.89 | 226 to 227 °C | 6.60 | 6.60 | 
11 | CCC(C)=NN1C(=O)CC(CNc2ccc(S(N)(=O)=O)cc2)C1=O (stereo not drawn) [Compound 4a, 4-(((1-(Butan-2-ylideneamino)-2,5-dioxopyrrolidin-3-yl)methyl)amino)benzenesulfonamide] | 4.74 | 4.40 |  |  |  |  |  |  | 5.70 | 4.74 |  | 117 to 118 °C | 4.70 |  | 
12 | COc1ccc(C=NNC(=O)CC(CNc2ccc(S(N)(=O)=O)cc2)C(=O)NN=Cc2ccc(OC)cc2)cc1 (stereo not drawn) [Compound 14a, 4-((2-(2-(4-Methoxybenzylidene)hydrazine-1-carbonyl)-4-(2-(4-methoxybenzylidene)hydrazineyl)-4-oxobutyl)amino)benzenesulfonamide] | 4.49 | 5.47 |  |  |  |  |  |  | 5.85 | 4.42 |  | 168 to 169 °C | 4.64 |  | 
13 | NS(=O)(=O)c1ccc(NCC(CC(=O)NNC(=S)Nc2ccccc2)C(=O)NNC(=S)Nc2ccccc2)cc1 (stereo not drawn) [Compound 23a, 2,2′-(2-(((4-Sulfamoylphenyl)amino)methyl)succinyl)bis(N-phenylhydrazine-1-carbothioamide)] | 5.40 | 5.70 |  |  |  |  |  |  | 6.89 | 5.66 |  | 136 to 137 °C | 5.00 |  | 
